# Values joined by “and” are separate entries in the source; they are usually repeats but may differ in a detail not shown here. Equal entries are not always repeated.
# Experiments:
# [1] = biological target: T1, 70S IC (Escherichia coli, UniProt P0A705); assay: 70S IC formation by Bpy-tRNAi accommodation, stopped-flow; type: biochemical; parameters: K1, best-fit value: unit not given here; conditions: for A0, best-fit value / A1, best-fit value / K1, best-fit value / k2, best-fit value: fit Y=A0+A1*exp(-K1*x)+k2*x; for kfast (s-1) Avg: fluorescence
# T1 construct: 6xHis (N); made in house
# Procedure: (§1) Continuous lines indicate nonlinear regression fittings with a quadratic equation. Three measurements were performed; mean and standard deviation are plotted (S1 Data). (B) as (A) to measure the concentration dependence for each tested guanosine nucleotide at constant IF2 (1 μM). […] Continuous lines show best fits using exponential functions. (D) Formation of 70S IC as measured by Bpy-tRNAi accommodation in the P site of the ribosome; 0.1 μM 30S ICs were formed with Bpy-tRNAi and rapidly mixed with 0.3 μM 50S subunits on a stopped-flow apparatus as described in [14]. Colors are as in (C). Continuous lines show best fits using an exponential function for a single reaction step. Each stopped-flow trace results from the mean of 5 to 7 replicates.
# (A) Scheme of 70S IC formation. […] Time traces were analyzed by nonlinear regression with exponential terms. […] Formation of 70S IC, as measured by Bpy-tRNAi accommodation in the absence (F) or presence of 200 μM ppGpp (G). Time traces were analyzed by nonlinear regression with one exponential term. […] Continuous lines show best fits using an exponential function for a single reaction step. All time traces are mean values of 5 to 10 replicates. Bar graphs show mean and standard errors (error bars) derived from the nonlinear regression fitting (D,E,H,I) (S1 Data).
# To measure 70S pre-IC formation, a SX-20 stopped-flow instrument (Applied Photophysics, Leatherhead, UK) was set up for LS recording with an excitation wavelength of 430 nm. Scattered light was measured at an angle of 90° without a filter. Pseudo first-order conditions were approximated by using ≥3-fold excess of 50S subunits over 30S ICs; 0.2 μM 30S ICs were rapidly mixed in the instrument with 0.6 μM 50S at 25 °C. Bpy-tRNAi accommodation was measured essentially as described elsewhere. Briefly, 0.2 μM 30S ICs were formed using Bpy-tRNAi and rapidly mixed with 0.6 μM 50S at 25 °C. Fluorescence was excited at 470 nm and measured after a 495-nm longpass filter. Individual traces (6–11 traces) were averaged, and the resulting kinetic curve was approximated by single (F = A0 + A1*exp (-kapp1*t)) or double (F = A0 + A1*exp (-kapp1*t) + A2*exp (-kapp2*t)) exponential fit using Graphpad Prism 6.0 software (GraphPad, San Diego, California).
# [2] = biological target: T2, 30S IC (30S-bound IF2, Bpy-tRNAi) (Escherichia coli, UniProt P0A705); assay: 30S IC formation measured by MST at increasing concentrations of IF2 with guanosine nucleotides; type: binding; conditions: Fig 2A
# T2 construct: 6xHis (N); made in house
# Description: (§2) To monitor the interaction of initiator tRNA and 30S ribosomal subunits, we used Microscale Thermophoresis (MST) with a fluorescently labelled initiator tRNA (Bpy-tRNAi) (Fig 1B). MST allows to measure fluorescence in a constrained space. Changes on the readout derive from molecular drifts resulting from small thermal equilibrium perturbations. Upon equilibrium perturbations, the patterns of Bpy-tRNAi migration away from the observation space are related to bound and unbound states (Fig 1B). […] On the contrary, a decrease in thermophoresis indicated the dissociation of Bpy-tRNAi. The relation between fluorescence measured at both equilibriums (Ff to Fi, after and prior to the perturbation, respectively) as a function of ligand concentration allowed to determine dissociation constants of the interaction (Fig 1C).
# as §1
# [3] = biological target: T3, IF2-bound 30S IC (Escherichia coli, UniProt P0A705); assay: 30S IC formation by MST, guanosine nucleotide titration; type: binding; conditions: Fig 2B;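 note: lower thermophoresis signal means Bpy-tRNAi dissociation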
# T3 construct: 6xHis (N); made in house
# Description: as §2, §1
# MST was calculated from the respective fluorescence time dependencies (S3 Fig). […] Symbols as in (B). […] Continuous lines indicate nonlinear regression fittings with quadratic (B and E) or same-site competition (G) functions. Three measurements were performed; mean and standard deviations are plotted (S1 Data).
# T2 sequence (P0A705 whole entry, looked up): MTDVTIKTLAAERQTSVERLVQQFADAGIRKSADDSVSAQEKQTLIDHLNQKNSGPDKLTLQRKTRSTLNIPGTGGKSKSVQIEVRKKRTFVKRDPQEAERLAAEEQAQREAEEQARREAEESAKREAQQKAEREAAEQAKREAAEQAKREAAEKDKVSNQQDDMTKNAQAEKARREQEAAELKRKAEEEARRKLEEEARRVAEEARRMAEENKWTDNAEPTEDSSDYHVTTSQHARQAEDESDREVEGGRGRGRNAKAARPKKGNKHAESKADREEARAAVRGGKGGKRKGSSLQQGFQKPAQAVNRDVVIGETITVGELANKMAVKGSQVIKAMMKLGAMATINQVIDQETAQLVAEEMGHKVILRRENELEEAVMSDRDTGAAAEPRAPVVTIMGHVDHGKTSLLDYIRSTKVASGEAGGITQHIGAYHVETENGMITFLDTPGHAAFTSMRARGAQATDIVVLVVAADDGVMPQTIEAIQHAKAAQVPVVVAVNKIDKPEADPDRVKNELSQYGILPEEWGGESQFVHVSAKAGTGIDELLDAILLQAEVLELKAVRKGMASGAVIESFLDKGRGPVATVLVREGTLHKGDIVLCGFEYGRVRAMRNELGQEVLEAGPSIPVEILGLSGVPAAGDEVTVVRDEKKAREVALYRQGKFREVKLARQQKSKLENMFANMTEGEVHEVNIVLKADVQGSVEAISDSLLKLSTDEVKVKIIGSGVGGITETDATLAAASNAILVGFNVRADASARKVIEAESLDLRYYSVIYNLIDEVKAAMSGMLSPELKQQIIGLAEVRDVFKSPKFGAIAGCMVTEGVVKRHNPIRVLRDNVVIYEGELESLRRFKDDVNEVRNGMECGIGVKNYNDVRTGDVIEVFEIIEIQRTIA
# T3 sequence (P0A705 whole entry, looked up): as above
# T1 sequence (P0A705 whole entry, looked up): as above
structure (smiles),measurement,setting,value
"Nc1nc2c(ncn2[C@@H]2O[C@H](COP(=O)(O)OP(=O)(O)OP(=O)(O)O)[C@@H](O)[C@H]2O)c(=O)[nH]1 [GTP, guanosine triphosphate]",kapp of Bpy-tRNAi accommodation (70S IC formation),"[1]; 30S ICs formed with 0.2 mM nucleotide, mixed with 50S subunits",2.4 ± 0.2 s^–1
same,"A0, best-fit value",[1]; mInfA,0.90
same,"A1, best-fit value",[1]; mInfA,0.11
same,"K1, best-fit value",[1]; mInfA,1.58
same,"k2, best-fit value",[1]; mInfA,-0.00193
same,"A0, best-fit value",[1]; mMF1,0.90
same,"A1, best-fit value",[1]; mMF1,0.10
same,"K1, best-fit value",[1]; mMF1,1.49
same,"k2, best-fit value",[1]; mMF1,-1.6e-5
same,Fluorescence Amplitude Avg,[1]; mRNA mInfA,0.108
same,kfast (s-1) Avg,[1]; mRNA mInfA,1.58 s⁻¹
same,Fluorescence Amplitude Avg,[1]; mRNA mMF1,0.103
same,kfast (s-1) Avg,[1]; mRNA mMF1,1.49 s⁻¹
same,Fluorescence Amplitude Avg,[1]; mRNA mTufA,0.145
same,kfast (s-1) Avg,[1]; mRNA mTufA,2.69 s⁻¹
same,"A0, best-fit value",[1]; mTufA,0.86
same,"A1, best-fit value",[1]; mTufA,0.15
same,"K1, best-fit value",[1]; mTufA,2.69
same,"k2, best-fit value",[1]; mTufA,-0.00034
same,MST Average,[2]; IF2 0.16 µM,1029.29 a.u.
same,MST Average,[2]; IF2 0.31 µM,1076.43 a.u.
same,MST Average,[2]; IF2 0.63 µM,1093.32 a.u.
same,MST Average,[2]; IF2 1.25 µM,1094.97 a.u.
same,MST Average,[2]; IF2 2.50 µM,1077.58 a.u.
same,MST Average,[2]; IF2 5.00 µM,1077.76 a.u.
same,MST Average,[3]; nucleotide 0.005 µM,931.90 a.u.
same,MST Replicates (a.u.),"[3]; nucleotide 0.005 µM, constant IF2 (1 μM)",929.16 a.u. and 932.86 a.u. and 933.70 a.u.
same,MST Average,[3]; nucleotide 0.01 µM,935.48 a.u.
same,MST Replicates (a.u.),[3]; nucleotide 0.01 µM,935.39 a.u. and 935.49 a.u. and 935.55 a.u.
same,MST Average,[3]; nucleotide 0.02 µM,931.90 a.u.
same,MST Replicates (a.u.),[3]; nucleotide 0.02 µM,930.17 a.u. and 932.09 a.u. and 933.42 a.u.
same,MST Average,[3]; nucleotide 0.04 µM,934.94 a.u.
same,MST Replicates (a.u.),[3]; nucleotide 0.04 µM,935.42 a.u. and 934.45 a.u. and 934.96 a.u.
same,MST Average,[3]; nucleotide 0.08 µM,940.63 a.u.
same,MST Replicates (a.u.),[3]; nucleotide 0.08 µM,937.42 a.u. and 941.79 a.u. and 942.68 a.u.
same,MST Average,[3]; nucleotide 0.16 µM,949.92 a.u.
same,MST Replicates (a.u.),[3]; nucleotide 0.16 µM,950.95 a.u. and 949.65 a.u. and 949.17 a.u.
same,MST Average,[3]; nucleotide 0.31 µM,960.63 a.u.
same,MST Replicates (a.u.),[3]; nucleotide 0.31 µM,959.49 a.u. and 961.54 a.u. and 960.87 a.u.
same,MST Average,[3]; nucleotide 0.63 µM,975.44 a.u.
same,MST Replicates (a.u.),[3]; nucleotide 0.63 µM,975.52 a.u. and 975.43 a.u. and 975.39 a.u.
same,MST Average,[3]; nucleotide 1.25 µM,984.37 a.u.
same,MST Replicates (a.u.),[3]; nucleotide 1.25 µM,979.99 a.u. and 986.37 a.u. and 986.76 a.u.
same,MST Average,[3]; nucleotide 2.50 µM,1006.59 a.u.
same,MST Replicates (a.u.),[3]; nucleotide 2.50 µM,1003.01 a.u. and 1008.37 a.u. and 1008.39 a.u.
same,MST Average,[3]; nucleotide 5.00 µM,1020.42 a.u.
same,MST Replicates (a.u.),[3]; nucleotide 5.00 µM,1016.52 a.u. and 1022.52 a.u. and 1022.21 a.u.

# Reference: publication PMC7010297, “How the initiating ribosome copes with ppGpp to translate mRNAs” (PLoS Biology, 2020)
